{"source": "ChEMBL document CHEMBL4346657", "about": "“Anticancer activity, dual prooxidant/antioxidant effect and apoptosis induction profile of new bichalcophene-5-carboxamidines” (Eur J Med Chem, 2019)", "key": {"UO-31": {"test_system": "UO-31", "assay": "Antiproliferative activity against human UO31 cells assessed as growth inhibition after 48 hrs by sulforhodamine B assay", "format": "functional", "settings": "UO-31, 48 h"}, "[1]": {"test_system": "Panel NCI-60 (60 carcinoma cell lines)", "assay": "Antiproliferative activity against human NCI60 cells assessed as growth inhibition after 48 hrs by sulforhodamine B assay", "format": "functional"}, "WI-38": {"test_system": "WI-38", "assay": "Cytotoxicity activity against human WI38 cells assessed as reduction in cell viability measured after 48 hrs by MTT assay", "format": "cell-based", "settings": "WI-38, 48 h"}, "[2]": {"assay": "Selectivity index, ratio of IC50 for human WI38 cells to GI50 for human NCI60 cells"}, "PC-3": {"test_system": "PC-3", "assay": "Antiproliferative activity against human PC3 cells assessed as growth inhibition after 48 hrs by sulforhodamine B assay", "format": "functional", "settings": "PC-3, 48 h"}, "MDA-MB-231": {"test_system": "MDA-MB-231", "assay": "Antiproliferative activity against human MDA-MB-231/ATCC cells assessed as growth inhibition after 48 hrs by sulforhodamine B assay", "format": "functional", "settings": "MDA-MB-231, 48 h"}, "OVCAR-3": {"test_system": "OVCAR-3", "assay": "Antiproliferative activity against human OVCAR3 cells assessed as growth inhibition after 48 hrs by sulforhodamine B assay", "format": "functional", "settings": "OVCAR-3, 48 h"}, "SN12C": {"test_system": "SN12C", "assay": "Antiproliferative activity against human SN12C cells assessed as growth inhibition after 48 hrs by sulforhodamine B assay", "format": "functional"}, "RXF 393": {"test_system": "RXF 393", "assay": "Antiproliferative activity against human RXF393 cells assessed as growth inhibition after 48 hrs by sulforhodamine B assay", "format": "functional", "settings": "RXF 393, 48 h"}, "CAKI-1": {"test_system": "CAKI-1", "assay": "Antiproliferative activity against human CAKI-1 cells assessed as growth inhibition after 48 hrs by sulforhodamine B assay", "format": "functional", "settings": "CAKI-1, 48 h"}, "ACHN": {"test_system": "ACHN", "assay": "Antiproliferative activity against human ACHN cells assessed as growth inhibition after 48 hrs by sulforhodamine B assay", "format": "functional"}, "A498": {"test_system": "A498", "assay": "Antiproliferative activity against human A498 cells assessed as growth inhibition after 48 hrs by sulforhodamine B assay", "format": "functional", "settings": "A498, 48 h"}, "786-0": {"test_system": "786-0", "assay": "Antiproliferative activity against human 786-0 cells assessed as growth inhibition after 48 hrs by sulforhodamine B assay", "format": "functional", "settings": "786-0, 48 h"}, "NCI/ADR-RES": {"test_system": "NCI/ADR-RES", "assay": "Antiproliferative activity against human NCI-ADR-RES cells assessed as growth inhibition after 48 hrs by sulforhodamine B assay", "format": "functional"}, "OVCAR-5": {"test_system": "OVCAR-5", "assay": "Antiproliferative activity against human OVCAR5 cells assessed as growth inhibition after 48 hrs by sulforhodamine B assay", "format": "functional", "settings": "OVCAR-5, 48 h"}, "IGROV-1": {"test_system": "IGROV-1", "assay": "Antiproliferative activity against human IGROV1 cells assessed as growth inhibition after 48 hrs by sulforhodamine B assay", "format": "functional", "settings": "IGROV-1, 48 h"}, "SK-MEL-5": {"test_system": "SK-MEL-5", "assay": "Antiproliferative activity against human SK-MEL-5 cells assessed as growth inhibition after 48 hrs by sulforhodamine B assay", "format": "functional", "settings": "SK-MEL-5, 48 h"}, "SK-MEL-28": {"test_system": "SK-MEL-28", "assay": "Antiproliferative activity against human SK-MEL-28 cells assessed as growth inhibition after 48 hrs by sulforhodamine B assay", "format": "functional", "settings": "SK-MEL-28, 48 h"}, "SK-MEL-2": {"test_system": "SK-MEL-2", "assay": "Antiproliferative activity against human SK-MEL-2 cells assessed as growth inhibition after 48 hrs by sulforhodamine B assay", "format": "functional", "settings": "SK-MEL-2, 48 h"}, "MDA-MB-435": {"test_system": "MDA-MB-435", "assay": "Antiproliferative activity against human MDA-MB-435 cells assessed as growth inhibition after 48 hrs by sulforhodamine B assay", "format": "functional", "settings": "MDA-MB-435, 48 h"}, "M14": {"test_system": "M14", "assay": "Antiproliferative activity against human M14 cells assessed as growth inhibition after 48 hrs by sulforhodamine B assay", "format": "functional", "settings": "M14, 48 h"}, "SNB-75": {"test_system": "SNB-75", "assay": "Antiproliferative activity against human SNB75 cells assessed as growth inhibition after 48 hrs by sulforhodamine B assay", "format": "functional", "settings": "SNB-75, 48 h"}, "SNB-19": {"test_system": "SNB-19", "assay": "Antiproliferative activity against human SNB19 cells assessed as growth inhibition after 48 hrs by sulforhodamine B assay", "format": "functional", "settings": "SNB-19, 48 h"}, "SF-295": {"test_system": "SF-295", "assay": "Antiproliferative activity against human SF295 cells assessed as growth inhibition after 48 hrs by sulforhodamine B assay", "format": "functional", "settings": "SF-295, 48 h"}, "KM12": {"test_system": "KM12", "assay": "Antiproliferative activity against human KM12 cells assessed as growth inhibition after 48 hrs by sulforhodamine B assay", "format": "functional", "settings": "KM12, 48 h"}, "HCT-15": {"test_system": "HCT-15", "assay": "Antiproliferative activity against human HCT15 cells assessed as growth inhibition after 48 hrs by sulforhodamine B assay", "format": "functional", "settings": "HCT-15, 48 h"}, "COLO 205": {"test_system": "COLO 205", "assay": "Antiproliferative activity against human COLO205 cells assessed as growth inhibition after 48 hrs by sulforhodamine B assay", "format": "functional", "settings": "COLO 205, 48 h"}, "NCI-H522": {"test_system": "NCI-H522", "assay": "Antiproliferative activity against human NCI-H522 cells assessed as growth inhibition after 48 hrs by sulforhodamine B assay", "format": "functional", "settings": "NCI-H522, 48 h"}, "NCI-H460": {"test_system": "NCI-H460", "assay": "Antiproliferative activity against human NCI-H460 cells assessed as growth inhibition after 48 hrs by sulforhodamine B assay", "format": "functional", "settings": "NCI-H460, 48 h"}, "NCI-H322M": {"test_system": "NCI-H322M", "assay": "Antiproliferative activity against human NCI-H322M cells assessed as growth inhibition after 48 hrs by sulforhodamine B assay", "format": "functional"}, "NCI-H226": {"test_system": "NCI-H226", "assay": "Antiproliferative activity against human NCI-H226 cells assessed as growth inhibition after 48 hrs by sulforhodamine B assay", "format": "functional", "settings": "NCI-H226, 48 h"}, "EKVX": {"test_system": "EKVX", "assay": "Antiproliferative activity against human EKVX cells assessed as growth inhibition after 48 hrs by sulforhodamine B assay", "format": "functional"}, "K562": {"test_system": "K562", "assay": "Antiproliferative activity against human K562 cells assessed as growth inhibition after 48 hrs by sulforhodamine B assay", "format": "functional, cell-based", "settings": "K562, 48 h, read-out: IC50"}, "HL-60(TB)": {"test_system": "HL-60(TB)", "assay": "Antiproliferative activity against human HL-60(TB) cells assessed as growth inhibition after 48 hrs by sulforhodamine B assay", "format": "functional", "settings": "HL-60, 48 h"}, "CCRF-CEM": {"test_system": "CCRF-CEM", "assay": "Antiproliferative activity against human CCRF-CEM cells assessed as growth inhibition after 48 hrs by sulforhodamine B assay", "format": "functional"}, "Hs-578T": {"test_system": "Hs-578T", "assay": "Antiproliferative activity against human Hs578T cells assessed as growth inhibition after 48 hrs by sulforhodamine B assay", "format": "functional"}, "BT-549": {"test_system": "BT-549", "assay": "Antiproliferative activity against human BT549 cells assessed as growth inhibition after 48 hrs by sulforhodamine B assay", "format": "functional", "settings": "BT-549, 48 h"}, "[3]": {"assay": "Haemolytic activity in human erythrocytes assessed as induction of hemolysis at 5 mM after 30 mins relative to H202", "format": "cell-based, Erythrocyte", "settings": "read-out: Activity"}, "Erythrocyte": {"test_system": "Erythrocyte", "assay": "Haemolytic activity in human erythrocytes assessed as induction of hemolysis at 0.625 mM after 30 mins relative to H202", "format": "cell-based", "settings": "erythrocyte, 0.5 h, 625 µM"}, "[4]": {"assay": "Antioxidant activity assessed as ABTS radical scavenging activity by spectrophotometric method relative to ascorbic acid", "format": "functional"}, "HCT-116 [5]": {"test_system": "HCT-116", "assay": "Induction of apoptosis in human HCT116 cells assessed as increase in p53 mRNA expression at 100 nM after 6 hrs hrs by SYBR green dye-based qRT-PCR analysis relative to control", "format": "functional"}, "HCT-116 [6]": {"test_system": "HCT-116", "assay": "[…] in CDK1 mRNA expression in human HCT116 cells at 100 nM after 6 hrs hrs by SYBR green dye-based qRT-PCR analysis relative to control", "format": "functional"}}, "note": "pIC50: −log10 of the molar value.", "data": [{"smiles": "N=C(N)c1ccc(-c2ccc(-c3cc(Cl)cc(Cl)c3)s2)s1", "values": [{"measurement": "GI50", "setting": "UO-31", "value": 1740, "unit": "nM"}, {"measurement": "GI50", "setting": "[1]", "value": 1940, "unit": "nM"}, {"measurement": "LC50", "setting": "[1]", "value": 75800, "unit": "nM"}, {"measurement": "TGI", "setting": "[1]", "value": 4460, "unit": "nM"}, {"measurement": "pIC50", "setting": "WI-38", "value": 4.01}, {"measurement": "Selectivity Index", "setting": "[2]", "value": 50.9}, {"measurement": "GI50", "setting": "PC-3", "value": 1880, "unit": "nM"}, {"measurement": "GI50", "setting": "MDA-MB-231", "value": 1870, "unit": "nM"}, {"measurement": "GI50", "setting": "OVCAR-3", "value": 1810, "unit": "nM"}, {"measurement": "GI50", "setting": "SN12C", "value": 2020, "unit": "nM"}, {"measurement": "GI50", "setting": "RXF 393", "value": 1850, "unit": "nM"}, {"measurement": "GI50", "setting": "CAKI-1", "value": 1720, "unit": "nM"}, {"measurement": "GI50", "setting": "ACHN", "value": 1750, "unit": "nM"}, {"measurement": "GI50", "setting": "A498", "value": 1530, "unit": "nM"}, {"measurement": "GI50", "setting": "786-0", "value": 1980, "unit": "nM"}, {"measurement": "GI50", "setting": "NCI/ADR-RES", "value": 2060, "unit": "nM"}, {"measurement": "GI50", "setting": "OVCAR-5", "value": 1960, "unit": "nM"}, {"measurement": "GI50", "setting": "IGROV-1", "value": 1970, "unit": "nM"}, {"measurement": "GI50", "setting": "SK-MEL-5", "value": 1900, "unit": "nM"}, {"measurement": "GI50", "setting": "SK-MEL-28", "value": 1830, "unit": "nM"}, {"measurement": "GI50", "setting": "SK-MEL-2", "value": 2240, "unit": "nM"}, {"measurement": "GI50", "setting": "MDA-MB-435", "value": 1670, "unit": "nM"}, {"measurement": "GI50", "setting": "M14", "value": 2020, "unit": "nM"}, {"measurement": "GI50", "setting": "SNB-75", "value": 1380, "unit": "nM"}, {"measurement": "GI50", "setting": "SNB-19", "value": 2110, "unit": "nM"}, {"measurement": "GI50", "setting": "SF-295", "value": 1960, "unit": "nM"}, {"measurement": "GI50", "setting": "KM12", "value": 1750, "unit": "nM"}, {"measurement": "GI50", "setting": "HCT-15", "value": 1620, "unit": "nM"}, {"measurement": "GI50", "setting": "COLO 205", "value": 1540, "unit": "nM"}, {"measurement": "GI50", "setting": "NCI-H522", "value": 1910, "unit": "nM"}, {"measurement": "GI50", "setting": "NCI-H460", "value": 2050, "unit": "nM"}, {"measurement": "GI50", "setting": "NCI-H322M", "value": 1660, "unit": "nM"}, {"measurement": "GI50", "setting": "NCI-H226", "value": 30800, "unit": "nM"}, {"measurement": "GI50", "setting": "EKVX", "value": 1750, "unit": "nM"}, {"measurement": "pIC50", "setting": "K562", "value": 5.89}, {"measurement": "GI50", "setting": "HL-60(TB)", "value": 1660, "unit": "nM"}, {"measurement": "GI50", "setting": "CCRF-CEM", "value": 2140, "unit": "nM"}, {"measurement": "GI50", "setting": "Hs-578T", "value": 2150, "unit": "nM"}, {"measurement": "GI50", "setting": "BT-549", "value": 4370, "unit": "nM"}, {"measurement": "hemolysis at 0.5 h, 5000 µM", "setting": "[3]", "value": 6.7, "unit": "%"}, {"measurement": "Activity", "setting": "Erythrocyte", "value": "Non-Toxic"}, {"measurement": "fold change (FC)", "setting": "[4]", "value": 0.4}, {"measurement": "fold change (FC)", "setting": "HCT-116 [5]", "value": 3.98}, {"measurement": "fold change (FC)", "setting": "HCT-116 [6]", "value": 0.21}]}]}
